Measured values from patent publication US9284333B2, “Fused pyrroledicarboxamides and their use as pharmaceuticals” (SANOFI, priority 2012, dated 2016).

Key:
Human TASK-1 channels = Human TASK-1 channels (Homo sapiens (Human), UniProt O14649); assay: Determination of the activity on the TASK-1 channel in Xenopus oocytes (two-microelectrode voltage clamp); format: cell-based; conditions: human TASK-1 expressed in Xenopus oocytes, room temperature; read-out: IC50 value for TASK-1 inhibition
Summary of the method: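 Current during 500 ms pulses to 40 mV from a −90 mV hold was recorded in oocytes expressing human TASK-1 for two days after cRNA injection. Compounds were added cumulatively to the ND96 bath (pH 7.4, room temperature). IC50 came from dose-response fitting of inhibition relative to pre-compound current.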

[1] = system: atrium of the anesthetized pig; assay: Investigation of the refractory period and the left-atrial vulnerability in the anesthetized pig; format: in vivo; conditions: Sus scrofa, iv
Description: Investigation of the Refractory Period and the Left-Atrial Vulnerability in the Pig
The compounds were tested for prolongation of the refractory period and antiarrhythmic activity on the atrium of the anesthetized pig as described in Knobloch K. et al., Naunyn-Schmiedeberg's Arch. Pharmacol. 2002, 366, 482-487. Here the anti-arrhythmic action relates to the inhibition of the occurrence of episodes of atrial arrhythmias which are induced by a prematurely placed extra-stimulus (S2) in the left atrium (=left-atrial vulnerability). The prolongation of the refractory period (refractoriness) is expressed as the increase in percent of the value of the refractory period 15 min after the end of administration of the test compound vs. the basal value before administration. Mean values of the prolongation of the refractory period are shown from three rates (150/min, 200/min and 250/min). The values for the inhibition of left atrial vulnerability (inhibition of episodes of arrhythmias) in percent refer to three measurements (three time points) before administration of the test compound vs. at least three measurements during the first hour after administration.
In Table 16, the action of compounds of the formula I from the examples above on the refractory period of the left atrium and their antiarrhythmic activity in the anesthetized pig after intravenous (i.v.) administration of the described dose is shown.

Chain of Human TASK-1 channels (O14649 whole entry): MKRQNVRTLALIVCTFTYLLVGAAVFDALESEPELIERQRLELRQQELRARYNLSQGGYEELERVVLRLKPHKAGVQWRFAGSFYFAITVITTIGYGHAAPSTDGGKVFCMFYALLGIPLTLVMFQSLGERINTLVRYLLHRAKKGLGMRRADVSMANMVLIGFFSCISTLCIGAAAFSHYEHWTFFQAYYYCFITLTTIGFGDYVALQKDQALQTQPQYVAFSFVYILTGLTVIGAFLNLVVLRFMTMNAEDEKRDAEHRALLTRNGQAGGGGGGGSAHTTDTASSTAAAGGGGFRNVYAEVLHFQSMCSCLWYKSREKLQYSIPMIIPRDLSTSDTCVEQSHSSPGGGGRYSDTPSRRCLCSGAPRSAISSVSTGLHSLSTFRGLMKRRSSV

| SMILES | IC50 (Human TASK-1 channels) [nM] | also measured |
| --- | --- | --- |
| CC[C@@H](NC(=O)c1cc(C(=O)N[C@H](C)c2ccc(F)cc2)n2c1COCC2)c1ccc(C(F)(F)F)nc1 [16g, 3,4-Dihydro-1H-pyrrolo[2,1-c][1,4]oxazine-6,8-dicarboxylic acid 6-{[(R)-1-(4-fluoro-phenyl)-ethyl]-amide} 8-{[(R)-1-(6-trifluoromethyl-pyridin-3-yl)-propyl]-amide}] | 290 | inhibition in vivo at 0.3 mg/kg ([1]; 0.3 mg/kg i.v. bolus injection): 100%; change in vivo at 0.3 mg/kg ([1]; 0.25 h, 0.3 mg/kg i.v. bolus injection, 15 min after administration vs basal, mean of three rates, read-out: % Prolongation of left atrial refractory period): 19% |
| CC[C@@H](NC(=O)c1cc(C(=O)N2CCCC2C(C)n2cccn2)n2c1COCC2)c1ccccc1 (stereo partly drawn) [16fw, 6-[2-(1-Pyrazol-1-yl-ethyl)-pyrrolidine-1-carbonyl]-3,4-dihydro-1H-pyrrolo[2,1-c][1,4]oxazine-8-carboxylic acid ((R)-1-phenyl-propyl)-amide] | 420 |  |
| CC[C@@H](NC(=O)c1cc(C(=O)NCCOC)n2c1COCC2)c1ccccc1 [16gh, 3,4-Dihydro-1H-pyrrolo[2,1-c][1,4]oxazine-6,8-dicarboxylic acid 6-[(2-methoxy-ethyl)-amide] 8-[((R)-1-phenyl-propyl)-amide]] | 2200 |  |
| CC[C@H]1CCCN1C(=O)c1cc(C(=O)N[C@H](CC)c2ccccc2)c2n1CCOC2 (racemic) [16fc, 6-((S)-2-Ethyl-pyrrolidine-1-carbonyl)-3,4-dihydro-1H-pyrrolo[2,1-c][1,4]oxazine-8-carboxylic acid ((R)-1-phenyl-propyl)-amide] | 25 |  |
| CC[C@@H](NC(=O)c1cc(C(=O)N2CCCC2C(C)(C)O)n2c1COCC2)c1ccccc1 (stereo partly drawn) [16ew, 6-[2-(1-Hydroxy-1-methyl-ethyl)-pyrrolidine-1-carbonyl]-3,4-dihydro-1H-pyrrolo[2,1-c][1,4]oxazine-8-carboxylic acid ((R)-1-phenyl-propyl)-amide] | 3700 |  |

Continued, in another order:

| IC50 (Human TASK-1 channels) [nM] | SMILES | also measured |
| --- | --- | --- |
| 240 | CC[C@H](NC(=O)c1cc(C(=O)N[C@H](C)c2ccc(F)cc2)n2c1COCC2)c1ncccn1 [16h, 3,4-Dihydro-1H-pyrrolo[2,1-c][1,4]oxazine-6,8-dicarboxylic acid 6-{[(R)-1-(4-fluoro-phenyl)-ethyl]-amide} 8-[((S)-1-pyrimidin-2-yl-propyl)amide]] | inhibition in vivo at 0.1 mg/kg ([1]; 0.1 mg/kg i.v. infusion over 1 h): 97%; change in vivo at 0.1 mg/kg ([1]; 0.25 h, 0.1 mg/kg i.v. infusion over 1 h, read-out: % Prolongation of left atrial refractory period): 42% |
| 180 | CC[C@@H](NC(=O)c1cc(C(=O)N[C@H](CC)c2ccccc2)n2c1COCC2)c1ccc(C(F)(F)F)nc1 [16jy, 3,4-Dihydro-1H-pyrrolo[2,1-c][1,4]oxazine-6,8-dicarboxylic acid 6-[((R)-1-phenyl-propyl)-amide] 8-{[(R)-1-(6-trifluoromethyl-pyridin-3-yl)-propyl]-amide}] |  |
| 100 | CC[C@@H](NC(=O)c1cc(C(=O)N2CCC[C@@H]2C)c2n1CSC2)c1ccccc1 [16kx, 7-((S)-2-Methyl-pyrrolidine-1-carbonyl)-1H-pyrrolo[1,2-c]thiazole-5-carboxylic acid ((R)-1-phenyl-propyl)-amide] |  |
| 150 | CC[C@@H](NC(=O)c1cc(C(=O)N[C@H](C)c2ccc(F)cc2)n2c1CSCC2)c1ccccc1 [16la, 3,4-Dihydro-1H-pyrrolo[2,1-c][1,4]thiazine-6,8-dicarboxylic acid 6-{[(R)-1-(4-fluoro-phenyl)-ethyl]-amide} 8-[((R)-1-phenyl-propyl)-amide]] |  |
